Experimental data from US9763942B2, “Serine/threonine kinase inhibitors” (Array BioPharma Inc., priority 2013, dated 2017).

Target: T1, human ERK-2 (Mitogen Activated Kinase 1) (Homo sapiens, UniProt P28482)
T1 construct: n-terminal 6-His fusion protein in E. coli and corresponding to aa 8-360; 6-His (N); made in house; host or cells: E. coli
Assay: ERK-2 Enzymatic Assay
Format: biochemical
Conditions: ERK-2 enzymatic assay; read-out: IC50
Source text: Table 1 contains representative data for Examples disclosed herein.

T1 sequence (P28482 8-360): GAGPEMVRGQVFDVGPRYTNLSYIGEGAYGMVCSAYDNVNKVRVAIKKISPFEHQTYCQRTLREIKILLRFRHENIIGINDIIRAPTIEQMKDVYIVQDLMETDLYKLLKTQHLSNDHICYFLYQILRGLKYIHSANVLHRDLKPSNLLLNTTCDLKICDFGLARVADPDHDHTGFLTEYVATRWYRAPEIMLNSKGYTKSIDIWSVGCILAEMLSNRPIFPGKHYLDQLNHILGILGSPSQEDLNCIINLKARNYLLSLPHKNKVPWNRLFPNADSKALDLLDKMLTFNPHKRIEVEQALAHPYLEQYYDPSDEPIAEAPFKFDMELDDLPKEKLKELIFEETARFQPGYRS

| Structure (SMILES) | IC50 |
| --- | --- |
| Cn1nccc1Nc1nccc(-c2ccc3c(c2)nnn3Cc2cccc(F)c2)n1 [Example 120, 4-(1-(3-fluorobenzyl)-1H-benzo[d][1,2,3]triazol-5-yl)-N-(1-methyl-1H-pyrazol-5-yl)pyrimidin-2-amine] | < 0.1 µM |
| Cn1nccc1Nc1nccc(-c2cnc3c(c2)nnn3Cc2ccc(F)c(Cl)c2)n1 [Example 121, 4-(3-(3-chloro-4-fluorobenzyl)-3H-[1,2,3]triazolo[4,5-b]pyridin-6-yl)-N-(1-methyl-1H-pyrazol-5-yl)pyrimidin-2-amine] | < 0.1 µM |
| Cn1nccc1Nc1nccc(-c2ccc3c(c2)nnn3Cc2ccccc2C(F)(F)F)n1 [Example 122] | < 0.1 µM |
| Cn1nccc1Nc1nccc(-c2ccc3c(c2)nnn3Cc2ccc(F)cc2F)n1 [Example 123] | < 0.1 µM |
| Cn1nccc1Nc1nccc(-c2cnc3c(c2)nnn3Cc2cccc(Cl)c2)n1 [Example 124, 4-(3-(3-chlorobenzyl)-3H-[1,2,3]triazolo[4,5-b]pyridin-6-yl)-N-(1-methyl-1H-pyrazol-5-yl)pyrimidin-2-amine] | < 0.1 µM |
| Cn1nccc1Nc1nccc(-c2ccc3c(c2)nnn3Cc2ccc(F)c(Cl)c2)n1 [Example 125, 4-(1-(3-chloro-4-fluorobenzyl)-1H-benzo[d][1,2,3]triazol-5-yl)-N-(1-methyl-1H-pyrazol-5-yl)pyrimidin-2-amine] | < 0.1 µM |

More lines, now with the values ahead:

| IC50 | Structure (SMILES) |
| --- | --- |
| < 0.1 µM | Cn1nccc1Nc1nccc(-c2ccc3c(c2)nnn3Cc2cccc(Cl)c2)n1 [Example 117, 4-(1-(3-chlorobenzyl)-1H-benzo[d][1,2,3]triazol-5-yl)-N(1-methyl-1H-pyrazol-5-yl)pyrimidin-2-amine] |
| < 0.1 µM | Cn1nccc1Nc1nccc(-c2cnc3c(c2)nnn3CCc2cccc(Cl)c2)n1 [Example 118, 4-(3-(3-chlorophenethyl)-3H-[1,2,3]triazolo[4,5-b]pyridin-6-yl)-N-(1-methyl-1H-pyrazol-5-yl)pyrimidin-2-amine] |
| < 0.1 µM | Cn1nccc1Nc1nccc(-c2cnc3c(c2)nnn3Cc2ccc(Cl)c(F)c2)n1 [Example 119, 4-(3-(4-chloro-3-fluorobenzyl)-3H-(1,2,3]triazolo[4,5-b]pyridin-6-yl)-N-(1-methyl-1H-pyrazol-5-yl)pyrimidin-2-amine] |
| < 0.1 µM | COc1ncccc1Cn1nnc2cc(-c3ccnc(Nc4ccnn4C)n3)cnc21 [Example 126, 4-(3-((2-methoxypyridin-3-yl)methyl)-3H-[1,2,3]triazolo[4,5-b]pyridin-6-yl)-N-(1-methyl-1H-pyrazol-5-yl)pyrimidin-2-amine] |
